The values that follow are results of earlier work, collected in patent US5932596A, “Imidazoylalkyl substituted with a six membered nitrogen containing nitrogen containing heterocyclic ring” (Schering Corporation, priority 1995, dated 1999).

The data set deals with H3 receptors. Conditions: rat brain; Arrang et al.

Turning to `NCCc1c[nH]cn1` [histamine], the “maximal inhibition of release” value is listed as “approximately 60%”.
